Read-outs that look alike come from different tables or passages of the source.
What was measured:
δ-opioid receptor [1] = conditions: Portoghese, J. Med. Chem. 33, 1547 (1990); cited from earlier work
δ-opioid receptor [2] = biological target: T1, δ-opioid receptor (Mus musculus, UniProt P32300); test: Change in δ-antagonist activity against DPDPE with time in mouse vas deferens (MVD); conditions: for Ratio of IC50 Values / Kb: 173 and NTI at 20 nM, 174 and 5'-NTII at 100 nM; for Kb: read-out: Ke
T1 construct: from tissue; host or cells: vas deferens of male ddy mice
Protocol: In this experiment, ddy male mice were used. In a Magnus' tube which is filled with Krebes-Henseleit solution (NaCl […]; KCl 4.7 mM; CaCl2 2.5 mM; KH2 PO4 1.1 mM; NaHCO3 25 mM; glucose 11 mM) kept at 37° C., and into which an atmosphere consisting of 5% carbon dioxide and 95% oxygen was flown, vas deferens taken from the animals was suspended. Electric stimulation was applied through ring-shaped platinum electrodes mounted on the upper and lower portions of the tube at a frequency of 0.1 Hz and 5.0 mS duration. The contraction of the tissue was recorded on polygraph using isometric transducer.
Then 100 nM of the test compound was added. Twenty minutes later, DPDPE was begun to be added cumulatively. The ratio of IC50 values in the presence and absence of the test compound, Ke value (the molar concentration of the test compound necessary for translating the dose-effect curve to the curve of twice dose) and pA2 value were determined. The pA2 value was determined by the method of Shild et al (Shild, H. O., Br. J. Pharmac. Chamotehr., 4, 277 (1949)). That is, the logarithm of the test compound (log[test compound]) was plotted along the abscissa and the logarithm of the value obtained by subtracting 1 from the ratio of IC50 values was plotted in the presence and absence of the test compound [log(dose ratio-1)] along the ordinate. The pA2 value was determined from the value on the abscissa when the value on the ordinate of the obtained line is 0.
Using MVD, the antagonist activities of compounds 173 and 174 against DPDPE were determined. The ratio of IC50 values, Ke values and pA2 values at 15 minutes, 30 minutes and 1 hour from the addition of the test compounds were calculated. Since the concentrations of the test compounds are different, the reciprocals of Ke values were plotted in FIGS. 1 and 2.

T1 sequence (P32300 whole entry): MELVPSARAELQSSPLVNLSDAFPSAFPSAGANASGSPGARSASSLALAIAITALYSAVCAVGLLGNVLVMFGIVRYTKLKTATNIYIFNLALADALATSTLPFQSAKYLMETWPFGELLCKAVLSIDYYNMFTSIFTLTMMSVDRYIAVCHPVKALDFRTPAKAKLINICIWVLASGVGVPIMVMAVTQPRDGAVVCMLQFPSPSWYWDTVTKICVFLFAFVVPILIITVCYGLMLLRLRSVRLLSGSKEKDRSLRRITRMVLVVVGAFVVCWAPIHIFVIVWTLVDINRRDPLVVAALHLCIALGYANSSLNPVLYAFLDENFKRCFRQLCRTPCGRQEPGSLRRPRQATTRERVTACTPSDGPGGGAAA

Oc1ccc2c3c1O[C@H]1c4[nH]c5ccc(N=C=S)cc5c4C[C@@]4(O)[C@@H](C2)N(CC2CC2)CC[C@]314 [5'-NTII, reference compound]
antagonist activity and selectivity to δ-opioid receptor (in words) (δ-opioid receptor [1]): antagonist activity and selectivity to δ-opioid receptor are low | Ratio of IC50 Values (δ-opioid receptor [2]; 15 min): 3.28 | Kb (δ-opioid receptor [2]; 15 min): 43.9 nM | change of antagonist activity with time (in words) (δ-opioid receptor [2]; 15 min to 1 hour): increased with time | Ratio of IC50 Values (δ-opioid receptor [2]; 30 min): 7.47 | Kb (δ-opioid receptor [2]; 30 min): 15.5 nM | Ratio of IC50 Values (δ-opioid receptor [2]; 60 min): 9.36 | Kb (δ-opioid receptor [2]; 60 min): 12 nM

— patent US6291470A, “Indole derivatives process for producing the same and medicinal uses of the same” (Toray Industries, Inc., priority 1992, dated 2001)
